In ChEMBL document CHEMBL1201861, “Genomics of Drug Sensitity in Cancer screening data, Wellcome Trust Sanger Institute”:

Key:
Experiment in all cases: cells
Assay type in all cases: functional, cell-based
Settings in all cases: Homo sapiens
[1] = tested on: DB
Description: SANGER: Inhibition of human DB cell growth in a cell viability assay.

[2] = tested on: DSH1;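 further: growth inhibition of human DSH1 cells, measured with a cell viability readout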
Description: SANGER: Inhibition of human DSH1 cell growth in a cell viability assay.

[3] = tested on: ES1;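 further: growth inhibition of ES1 cells, read out with a cell viability assay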
Description: SANGER: Inhibition of human ES1 cell growth in a cell viability assay.

[4] = tested on: ES7;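 further: growth inhibition of cultured human ES7 cells, read out as cell viability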
Description: SANGER: Inhibition of human ES7 cell growth in a cell viability assay.

[5] = tested on: EW-1;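 further: growth inhibition of the human EW-1 cell line, read out by a cell viability assay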
Description: SANGER: Inhibition of human EW-1 cell growth in a cell viability assay.

[6] = tested on: GR-ST
Description: SANGER: Inhibition of human GR-ST cell growth in a cell viability assay.

[7] = tested on: HC-1;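 further: growth inhibition of HC-1 cells measured by a cell viability assay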
Description: SANGER: Inhibition of human HC-1 cell growth in a cell viability assay.

[8] = tested on: HT
Description: SANGER: Inhibition of human HT cell growth in a cell viability assay.

[9] = tested on: HT-144
Description: SANGER: Inhibition of human HT-144 cell growth in a cell viability assay.

[10] = tested on: IA-LM;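 further: cell viability assay measuring growth inhibition of human IA-LM cells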
Description: SANGER: Inhibition of human IA-LM cell growth in a cell viability assay.

[11] = tested on: K562
Description: SANGER: Inhibition of human K-562 cell growth in a cell viability assay.

[12] = tested on: KARPAS-299
Description: SANGER: Inhibition of human KARPAS-299 cell growth in a cell viability assay.

[13] = tested on: KMOE-2;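 further: growth inhibition of human KMOE-2 cells, read out with a cell viability assay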
Description: SANGER: Inhibition of human KMOE-2 cell growth in a cell viability assay.

[14] = tested on: LAN-6;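 further: growth inhibition of LAN-6 cells, determined with a cell viability assay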
Description: SANGER: Inhibition of human LAN-6 cell growth in a cell viability assay.

[15] = tested on: LB2518-MEL;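 further: growth inhibition of human LB2518-MEL cells, measured with a cell viability assay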
Description: SANGER: Inhibition of human LB2518-MEL cell growth in a cell viability assay.

[16] = tested on: LB373-MEL-D;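 further: growth inhibition of the cell line, read out in a cell viability assay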
Description: SANGER: Inhibition of human LB373-MEL-D cell growth in a cell viability assay.

[17] = tested on: LB771-HNC;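 further: growth inhibition of LB771-HNC human cells, read out with a cell viability assay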
Description: SANGER: Inhibition of human LB771-HNC cell growth in a cell viability assay.

[18] = tested on: LC-2-ad;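 further: growth inhibition of human LC-2-ad cells, read out with a cell viability assay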
Description: SANGER: Inhibition of human LC-2-ad cell growth in a cell viability assay.

[19] = tested on: LOX IMVI
Description: SANGER: Inhibition of human LOXIMVI cell growth in a cell viability assay.

[20] = tested on: LS-513
Description: SANGER: Inhibition of human LS-513 cell growth in a cell viability assay.

[21] = tested on: LU-139
Description: SANGER: Inhibition of human LU-139 cell growth in a cell viability assay.

[22] = tested on: LXF-289 cell line
Description: SANGER: Inhibition of human LXF-289 cell growth in a cell viability assay.

[23] = tested on: MC116;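 further: growth inhibition of MC116 cells, read out with a cell viability assay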
Description: SANGER: Inhibition of human MC116 cell growth in a cell viability assay.

[24] = tested on: MFM-223
Description: SANGER: Inhibition of human MFM-223 cell growth in a cell viability assay.

[25] = tested on: MLMA;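 further: growth inhibition of MLMA cells (human), determined through a cell viability readout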
Description: SANGER: Inhibition of human MLMA cell growth in a cell viability assay.

[26] = tested on: MMAC-SF;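 further: growth inhibition of human MMAC-SF cells, read out with a cell viability assay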
Description: SANGER: Inhibition of human MMAC-SF cell growth in a cell viability assay.

[27] = tested on: MZ1-PC;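 further: cell viability assay measuring growth inhibition of human MZ1-PC cells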
Description: SANGER: Inhibition of human MZ1-PC cell growth in a cell viability assay.

[28] = tested on: MZ7-mel;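 further: growth inhibition of human MZ7-mel cells, measured by a cell viability assay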
Description: SANGER: Inhibition of human MZ7-mel cell growth in a cell viability assay.

[29] = tested on: Mo
Description: SANGER: Inhibition of human Mo-T cell growth in a cell viability assay.

[30] = tested on: NB5;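 further: growth inhibition of NB5 cells, read out as cell viability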
Description: SANGER: Inhibition of human NB5 cell growth in a cell viability assay.

[31] = tested on: NB6;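 further: growth inhibition of NB6 cells, read out by a cell viability assay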
Description: SANGER: Inhibition of human NB6 cell growth in a cell viability assay.

[32] = tested on: NCI-H1092;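 further: cell growth inhibition measured with a cell viability assay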
Description: SANGER: Inhibition of human NCI-H1092 cell growth in a cell viability assay.

[33] = tested on: NCI-H1304;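 further: growth inhibition of the cancer cell line, measured in a cell viability assay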
Description: SANGER: Inhibition of human NCI-H1304 cell growth in a cell viability assay.

[34] = tested on: NCI-H1650;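 further: growth inhibition of human NCI-H1650 cells measured by a cell viability assay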
Description: SANGER: Inhibition of human NCI-H1650 cell growth in a cell viability assay.

[35] = tested on: NCI-H1838;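 further: growth inhibition of NCI-H1838 cells, determined with a cell viability readout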
Description: SANGER: Inhibition of human NCI-H1838 cell growth in a cell viability assay.

[36] = tested on: NCI-H226;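 further: cell viability read-out used to gauge growth inhibition of the cells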
Description: SANGER: Inhibition of human NCI-H226 cell growth in a cell viability assay.

[37] = tested on: NCI-H446;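 further: growth inhibition of NCI-H446 cells determined by a cell viability assay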
Description: SANGER: Inhibition of human NCI-H446 cell growth in a cell viability assay.

[38] = tested on: NCI-H82;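 further: growth inhibition of NCI-H82 cells, measured with a cell viability readout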
Description: SANGER: Inhibition of human NCI-H82 cell growth in a cell viability assay.

[39] = tested on: SNU-5;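 further: cell viability readout used to measure growth inhibition in human NCI-SNU-5 cells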
Description: SANGER: Inhibition of human NCI-SNU-5 cell growth in a cell viability assay.

[40] = tested on: NH-12;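 further: growth inhibition of NH-12 cells, read out with a cell viability assay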
Description: SANGER: Inhibition of human NH-12 cell growth in a cell viability assay.

[41] = tested on: NMC-G1;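 further: growth inhibition of the NMC-G1 cell line, measured with a cell viability read-out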
Description: SANGER: Inhibition of human NMC-G1 cell growth in a cell viability assay.

[42] = tested on: OCI-AML2;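 further: growth inhibition of OCI-AML2 cells, read out with a cell viability assay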
Description: SANGER: Inhibition of human OCI-AML2 cell growth in a cell viability assay.

[43] = tested on: OCUB-M;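 further: growth inhibition of the cancer cell line, read out through a cell viability assay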
Description: SANGER: Inhibition of human OCUB-M cell growth in a cell viability assay.

[44] = tested on: OVCAR-4;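 further: growth inhibition of human OVCAR-4 cells, measured with a cell viability assay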
Description: SANGER: Inhibition of human OVCAR-4 cell growth in a cell viability assay.

[45] = tested on: PSN1;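 further: suppression of growth of human PSN1 cells, read out by a cell viability assay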
Description: SANGER: Inhibition of human PSN1 cell growth in a cell viability assay.

[46] = tested on: RCC10RGB;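 further: growth inhibition of human RCC10RGB cells, read out by a cell viability assay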
Description: SANGER: Inhibition of human RCC10RGB cell growth in a cell viability assay.

[47] = tested on: RKO;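 further: growth inhibition of human RKO cells, read out with a cell viability assay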
Description: SANGER: Inhibition of human RKO cell growth in a cell viability assay.

[48] = tested on: RPMI-8226
Description: SANGER: Inhibition of human RPMI-8226 cell growth in a cell viability assay.

[49] = tested on: Ramos-2G6-4C10;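 further: growth inhibition of the cell line, measured by a cell viability read-out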
Description: SANGER: Inhibition of human Ramos-2G6-4C10 cell growth in a cell viability assay.

[50] = tested on: SF-268;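 further: growth inhibition of SF-268 cells determined with a cell viability assay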
Description: SANGER: Inhibition of human SF268 cell growth in a cell viability assay.

[51] = tested on: SK-PN-DW;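 further: growth inhibition measured with a viability assay on these cells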
Description: SANGER: Inhibition of human SK-PN-DW cell growth in a cell viability assay.

[52] = tested on: SK-UT-1;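 further: growth inhibition of SK-UT-1 cells, measured by a cell viability assay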
Description: SANGER: Inhibition of human SK-UT-1 cell growth in a cell viability assay.

[53] = tested on: SNU-C2B;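 further: cell viability readout used to measure compound-driven suppression of SNU-C2B cell proliferation, IC50 marking half-maximal growth inhibition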
Description: SANGER: Inhibition of human SNU-C2B cell growth in a cell viability assay.

[54] = tested on: 697
Description: SANGER: Inhibition of human 697 cell growth in a cell viability assay.

[55] = tested on: 8-MG-BA;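 further: growth inhibition of 8-MG-BA cells, read out with a cell viability assay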
Description: SANGER: Inhibition of human 8-MG-BA cell growth in a cell viability assay.

[56] = tested on: A101D;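 further: growth inhibition of the cell line, measured with a viability assay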
Description: SANGER: Inhibition of human A101D cell growth in a cell viability assay.

[57] = tested on: BB30-HNC;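 further: growth inhibition of the cultured cell line, read out by a cell viability assay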
Description: SANGER: Inhibition of human BB30-HNC cell growth in a cell viability assay.

[58] = tested on: BE-13;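 further: growth inhibition of human BE-13 cells, measured with a cell viability assay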
Description: SANGER: Inhibition of human BE-13 cell growth in a cell viability assay.

[59] = tested on: BT-474
Description: SANGER: Inhibition of human BT-474 cell growth in a cell viability assay.

[60] = tested on: TE-10;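 further: growth inhibition of TE-10 cells, measured by a cell viability assay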
Description: SANGER: Inhibition of human TE-10 cell growth in a cell viability assay.

[61] = tested on: TE-6;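 further: growth inhibition of TE-6 cells, read out with a cell viability assay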
Description: SANGER: Inhibition of human TE-6 cell growth in a cell viability assay.

[62] = tested on: TE-8;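 further: growth inhibition of TE-8 cells, measured with a cell viability readout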
Description: SANGER: Inhibition of human TE-8 cell growth in a cell viability assay.

[63] = tested on: TE-9
Description: SANGER: Inhibition of human TE-9 cell growth in a cell viability assay.

[64] = tested on: UACC-257
Description: SANGER: Inhibition of human UACC-257 cell growth in a cell viability assay.

[65] = tested on: CCRF-CEM
Description: SANGER: Inhibition of human CCRF-CEM cell growth in a cell viability assay.

[66] = tested on: CGTH-W-1
Description: SANGER: Inhibition of human CGTH-W-1 cell growth in a cell viability assay.

Cc1nc(Nc2ncc(C(=O)Nc3c(C)cccc3Cl)s2)cc(N2CCN(CCO)CC2)n1 [DASATINIB]
IC50 [1]: > 1280 nM | IC50 [2]: 240 nM | IC50 [3]: > 1280 nM | IC50 [4]: > 1280 nM | IC50 [5]: > 1280 nM | IC50 [6]: > 1280 nM | IC50 [7]: > 1280 nM | IC50 [8]: > 1280 nM | IC50 [9]: 536 nM | IC50 [10]: > 1280 nM | IC50 [11]: < 5 nM | IC50 [12]: > 1280 nM | IC50 [13]: > 1280 nM | IC50 [14]: > 1280 nM | IC50 [15]: 142 nM | IC50 [16]: 825 nM | IC50 [17]: > 1280 nM | IC50 [18]: 25.9 nM | IC50 [19]: 315 nM | IC50 [20]: > 1280 nM | IC50 [21]: > 1280 nM | IC50 [22]: 39.6 nM | IC50 [23]: 114 nM | IC50 [24]: > 1280 nM | IC50 [25]: 140 nM | IC50 [26]: > 1280 nM | IC50 [27]: 31.2 nM | IC50 [28]: 479 nM | IC50 [29]: > 1280 nM | IC50 [30]: > 1280 nM | IC50 [31]: > 1280 nM | IC50 [32]: > 1280 nM | IC50 [33]: > 1280 nM | IC50 [34]: > 1280 nM | IC50 [35]: > 1280 nM | IC50 [36]: > 1280 nM | IC50 [37]: 628 nM | IC50 [38]: > 1280 nM | IC50 [39]: > 1280 nM | IC50 [40]: > 1280 nM | IC50 [41]: 116 nM | IC50 [42]: > 1280 nM | IC50 [43]: 1040 nM | IC50 [44]: 374 nM | IC50 [45]: 44.7 nM | IC50 [46]: 491 nM | IC50 [47]: 530 nM | IC50 [48]: > 1280 nM | IC50 [49]: > 1280 nM | IC50 [50]: 174 nM | IC50 [51]: > 1280 nM | IC50 [52]: > 1280 nM | IC50 [53]: > 1280 nM | IC50 [54]: 200 nM | IC50 [55]: 155 nM | IC50 [56]: 1030 nM | IC50 [57]: 54.4 nM | IC50 [58]: > 1280 nM | IC50 [59]: > 1280 nM | IC50 [60]: 63.6 nM | IC50 [61]: 1210 nM | IC50 [62]: 15.8 nM | IC50 [63]: 875 nM | IC50 [64]: > 1280 nM | IC50 [65]: > 1280 nM | IC50 [66]: 35.5 nM

C[C@]12O[C@H](C[C@]1(O)CO)n1c3ccccc3c3c4c(c5c6ccccc6n2c5c31)CNC4=O [LESTAURTINIB]
IC50 [1]: 802 nM | IC50 [2]: 992 nM | IC50 [3]: 95.3 nM | IC50 [4]: 94.8 nM | IC50 [5]: 1080 nM | IC50 [6]: 494 nM | IC50 [7]: 922 nM | IC50 [8]: 1130 nM | IC50 [9]: 978 nM | IC50 [10]: > 2000 nM | IC50 [11]: > 2000 nM | IC50 [12]: > 2000 nM | IC50 [13]: 617 nM | IC50 [14]: > 2000 nM | IC50 [15]: 405 nM | IC50 [16]: > 2000 nM | IC50 [17]: > 2000 nM | IC50 [18]: 257 nM | IC50 [19]: 298 nM | IC50 [20]: 1250 nM | IC50 [21]: > 2000 nM | IC50 [22]: 1020 nM | IC50 [23]: 190 nM | IC50 [24]: 333 nM | IC50 [25]: 146 nM | IC50 [26]: 72.1 nM | IC50 [27]: > 2000 nM | IC50 [28]: 603 nM | IC50 [29]: > 2000 nM | IC50 [30]: 471 nM | IC50 [31]: 936 nM | IC50 [32]: > 2000 nM | IC50 [33]: > 2000 nM | IC50 [34]: > 2000 nM | IC50 [35]: > 2000 nM | IC50 [36]: > 2000 nM | IC50 [37]: 1910 nM | IC50 [38]: > 2000 nM | IC50 [39]: > 2000 nM | IC50 [40]: 199 nM | IC50 [41]: 411 nM | IC50 [42]: 1070 nM | IC50 [43]: > 2000 nM | IC50 [44]: > 2000 nM | IC50 [45]: 231 nM | IC50 [46]: > 2000 nM | IC50 [47]: 299 nM | IC50 [48]: 386 nM | IC50 [49]: 206 nM | IC50 [50]: 326 nM | IC50 [51]: 394 nM | IC50 [52]: 354 nM | IC50 [53]: 1120 nM | IC50 [54]: 26.5 nM | IC50 [55]: 124 nM | IC50 [56]: 67 nM | IC50 [57]: 935 nM | IC50 [58]: 280 nM | IC50 [59]: > 2000 nM | IC50 [60]: 1480 nM | IC50 [61]: > 2000 nM | IC50 [62]: 667 nM | IC50 [63]: 415 nM | IC50 [64]: 532 nM | IC50 [65]: > 2000 nM | IC50 [66]: 43.6 nM
